Source: US20260209220A1, “SUBSTITUTED TETRAHYDROPYRROLO-PYRIDINONE COMPOUNDS AND THEIR USE IN TREATING MEDICAL CONDITIONS” (Karuna Therapeutics, Inc., priority 2022, published 2026)

What was measured:
rM4 receptors = target: T1, rM4 receptors (Rattus norvegicus, UniProt P08485); assay: Rat M4 PAM PERK assay (CHO cells, TR-FRET, with EC20 acetylcholine); type: cell-based
T1 construct: expressed in transfected cells; host or cells: CHO cells
T1 sequence (P08485 1-478): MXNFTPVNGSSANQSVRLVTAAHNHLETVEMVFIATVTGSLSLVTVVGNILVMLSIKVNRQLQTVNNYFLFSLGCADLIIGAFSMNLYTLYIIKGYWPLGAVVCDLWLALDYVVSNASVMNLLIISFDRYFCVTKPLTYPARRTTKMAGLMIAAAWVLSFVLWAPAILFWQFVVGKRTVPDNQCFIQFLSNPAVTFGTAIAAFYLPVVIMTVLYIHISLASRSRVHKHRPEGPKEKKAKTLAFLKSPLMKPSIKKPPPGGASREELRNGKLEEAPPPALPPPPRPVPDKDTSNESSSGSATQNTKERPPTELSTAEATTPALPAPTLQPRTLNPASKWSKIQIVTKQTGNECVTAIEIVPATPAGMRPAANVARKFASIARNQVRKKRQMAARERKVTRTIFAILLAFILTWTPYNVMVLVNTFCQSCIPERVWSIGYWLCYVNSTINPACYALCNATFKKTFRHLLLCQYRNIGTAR
Description: (§1) Chinese hamster ovary (CHO) cells expressing either hM4 or rM4 receptors were frozen in assay ready vials (5×10^6 cells/vial) after bulking-up in culture. The day before an assay, vial(s) were thawed and cells seeded in 384 well white proxiplates at 1000/well for hM4 cells and at 2000/well for rM4 cells, in 10 μL of growth media (Hams/F12 with glutamax and 10% FCS) and incubated overnight at 37° C./5% CO2.
(§2) On the following morning, the growth media was removed by ‘flicking out’ over a bin, patting the inverted plate onto tissue, and then replacing with 10 μL of wash media (Hams/F12 with glutamax and 8 mM HEPES, NB: serum free). Then, the wash media was removed in the same way and replaced with 8 μL/well of the serum free media. Plates were then re-incubated for a further 4 hours at 37° C./5% CO2.
(§3) Compounds for testing were solubilized to 10 mM in DMSO and compound addition plates, consisting of ten-point concentration response curves (CRC) in duplicate points (10 μM top concentration, ½ log dilution series), were prepared by acoustic dispensing and the compound management group.
(§4) After the 4-hour incubation in serum free media, a 4 μL aliquot of the 3×compound solution containing an EC20 of acetylcholine (10 nM final concentration) was added to the cell plate using a 384 well plate to plate transfer. Then, the plate lid was replaced, and the cells incubated for 5 mins at 37° C./5% CO2. Following this final incubation, all cellular processes were stopped by the addition of 4 μL/well of lysis and blocking buffer and plates were incubated for 30 minutes at RT on an orbital shaker (gentle setting). Then, a final addition of 4 μL/well of antibody detection mix, containing both the Europium-Cryptate (donor) and d2 (acceptor) tagged detection components, was added followed by a further 2-hour incubation at RT, and then the plate was read using a TR-FRET (time resolved fluorescence resonance energy transfer) based protocol.

hM4 receptors = target: T2, hM4 receptors (Homo sapiens, UniProt P08173); assay: Human M4 PAM PERK assay (CHO cells, TR-FRET, with EC20 acetylcholine); type: cell-based
T2 construct: expressed in transfected cells; host or cells: CHO cells
T2 sequence (P08173 1-479): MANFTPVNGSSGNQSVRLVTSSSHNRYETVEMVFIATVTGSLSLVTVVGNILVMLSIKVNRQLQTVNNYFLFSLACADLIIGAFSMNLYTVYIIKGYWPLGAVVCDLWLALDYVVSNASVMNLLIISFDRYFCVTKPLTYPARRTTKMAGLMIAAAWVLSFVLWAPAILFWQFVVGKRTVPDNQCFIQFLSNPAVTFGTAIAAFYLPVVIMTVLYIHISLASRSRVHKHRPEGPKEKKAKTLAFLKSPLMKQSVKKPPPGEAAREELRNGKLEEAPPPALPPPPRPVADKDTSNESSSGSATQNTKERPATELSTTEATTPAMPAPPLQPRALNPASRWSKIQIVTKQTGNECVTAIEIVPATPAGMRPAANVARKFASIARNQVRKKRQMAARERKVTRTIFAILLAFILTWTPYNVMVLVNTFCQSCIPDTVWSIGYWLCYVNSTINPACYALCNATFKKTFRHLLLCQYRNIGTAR
Description: as §1, §2, §3, §4

SMILES	EC50 (rM4 receptors) [nM]	EC50 (hM4 receptors) [nM]
Cc1c2c(n(C)c(=O)c1Cl)CN(C(=O)CC1CN(c3ccccc3C(F)(F)F)C1)C2 [Compound I-74]	200 to 1000	50 to 200
Cc1c2c(n(C)c(=O)c1Cl)CN(C(=O)CC1CN(c3ccccc3)C1)C2 [Compound I-71]	200 to 1000	< 50
Cc1cc(=O)n(C)c2c1CN(C(=O)CC1CN(c3ccnc(C(F)(F)F)c3)C1)C2 [Compound I-1, 1,4-Dimethyl-6-(2-(1-(2-(trifluoromethyl)pyridin-4-yl)azetidin-3-yl)acetyl)-1,5,6,7-tetrahydro-2H-pyrrolo[3,4-b]pyridin-2-one]	200 to 1000	< 50
COc1cccc(N2CC(CC(=O)N3Cc4c(C)c(C)c(=O)n(C)c4C3)C2)c1 [Compound I-47]	200 to 1000	50 to 200
Cc1c2c(n(C)c(=O)c1Br)CN(C(=O)CC1CN(c3ccnc(C(F)(F)F)c3)C1)C2 [Compound I-110, 3-Bromo-1,4-dimethyl-6-(2-(1-(2-(trifluoromethyl)pyridin-4-yl)azetidin-3-yl)acetyl)-1,5,6,7-tetrahydro-2H-pyrrolo[3,4-b]pyridin-2-one]	200 to 1000	< 50
COc1c2c(n(C)c(=O)c1C)CN(C(=O)CC1CN(c3ccncn3)C1)C2 [Compound I-98]	> 1000	< 50
Cc1c2c(n(C)c(=O)c1C(F)(F)F)CN(C(=O)CC1CN(c3cccnc3)C1)C2 [Compound I-108, 1,4-Dimethyl-6-(2-(1-(pyridin-3-yl)azetidin-3-yl)acetyl)-3-(trifluoromethyl)-1,5,6,7-tetrahydro-2H-pyrrolo[3,4-b]pyridin-2-one]	> 1000	50 to 200
CCc1c(C)c2c(n(C)c1=O)CN(C(=O)CC1CN(c3ccnc(C(F)(F)F)c3)C1)C2 [Compound I-107, 3-Ethyl-1,4-dimethyl-6-(2-(1-(2-(trifluoromethyl)pyridin-4-yl)azetidin-3-yl)acetyl)-1,5,6,7-tetrahydro-2H-pyrrolo[3,4-b]pyridin-2-one]	> 1000	50 to 200
Cc1c2c(n(CC(F)(F)F)c(=O)c1Cl)CN(C(=O)CC1CN(c3cncnc3)C1)C2 [Compound I-96]	200 to 1000	50 to 200
Cc1cc(=O)n(C)c2c1CN(C(=O)CC1CN(c3cc(C4CC4)c(C#N)c(C(F)(F)F)c3)C1)C2 [Compound I-40, 2-Cyclopropyl-4-(3-(2-(1,4-dimethyl-2-oxo-1,2,5,7-tetrahydro-6H-pyrrolo[3,4-b]pyridin-6-yl)-2-oxoethyl)azetidin-1-yl)-6-(trifluoromethyl)benzonitrile]	200 to 1000	200 to 1000
Cc1cc(=O)n(C)c2c1CN(C(=O)CC1CN(c3ccc(C(F)(F)F)cc3)C1)C2 [Compound I-5]	> 1000	< 50
Cc1cc2c(n(C)c1=O)CN(C(=O)CC1CN(c3ccnc(C(F)(F)F)c3)C1)C2 [Compound I-112, 1,3-Dimethyl-6-(2-(1-(2-(trifluoromethyl)pyridin-4-yl)azetidin-3-yl)acetyl)-1,5,6,7-tetrahydro-2H-pyrrolo[3,4-b]pyridin-2-one]	> 1000	50 to 200
Cc1cc(=O)n(C)c2c1CN(C(=O)CC1CN(c3ccncn3)C1)C2 [Compound I-6]	200 to 1000	200 to 1000
Cc1cc(=O)n(CC(F)(F)F)c2c1CN(C(=O)CC1CN(c3ccc(C(F)(F)F)cc3)C1)C2 [Compound I-105, 4-Methyl-1-(2,2,2-trifluoroethyl)-6-(2-(1-(4-(trifluoromethyl)phenyl)azetidin-3-yl)acetyl)-1,5,6,7-tetrahydro-2H-pyrrolo[3,4-b]pyridin-2-one]	200 to 1000	> 1000
Cc1c2c(n(C)c(=O)c1Cl)CN(C(=O)CC1CN(c3ccncn3)C1)C2 [Compound I-70]	200 to 1000	< 50
Cc1cc(=O)n(C)c2c1CN(C(=O)CC1CN(c3cnnc(C4CC4)c3)C1)C2 [Compound I-38, 6-(2-(1-(6-Cyclopropylpyridazin-4-yl)azetidin-3-yl)acetyl)-1,4-dimethyl-1,5,6,7-tetrahydro-2H-pyrrolo[3,4-b]pyridin-2-one]	200 to 1000	50 to 200
Cc1c2c(n(C)c(=O)c1C)CN(C(=O)CC1CN(c3cnc(C(F)(F)F)cn3)C1)C2 [Compound I-50]	50 to 200	200 to 1000
Cc1cc(=O)n(C)c2c1C(C)N(C(=O)CC1CN(c3ccnc(C(F)(F)F)c3)C1)C2 (stereo not shown) [Compound I-114]	50 to 200	< 50
Cc1c2c(n(CC(F)(F)F)c(=O)c1Cl)CN(C(=O)CC1CN(c3cccnc3)C1)C2 [Compound I-93, 3-Chloro-4-methyl-6-(2-(1-(pyridin-3-yl)azetidin-3-yl)acetyl)-1-(2,2,2-trifluoroethyl)-1,5,6,7-tetrahydro-2H-pyrrolo[3,4-b]pyridin-2-one]	50 to 200	50 to 200
Cc1c2c(n(C)c(=O)c1C)CN(C(=O)CC1CN(c3ccc(CC(C)(C)O)c(F)c3)C1)C2 [Compound I-57]	50 to 200	< 50
CSc1c2c(n(C)c(=O)c1C)CN(C(=O)CC1CN(c3ccnc(C(F)(F)F)c3)C1)C2 [Compound I-104, 1,3-Dimethyl-4-(methylthio)-6-(2-(1-(2-(trifluoromethyl)pyridin-4-yl)azetidin-3-yl)acetyl)-1,5,6,7-tetrahydro-2H-pyrrolo[3,4-b]pyridin-2-one]	> 1000	200 to 1000
Cc1c2c(n(C)c(=O)c1C)CN(C(=O)CC1CN(c3ccc(F)c(C(F)(F)F)c3)C1)C2 [Compound I-49]	50 to 200	50 to 200
Cc1cc(=O)n(C)c2c1CN(C(=O)CC1CN(c3ccc(S(C)(=O)=O)cc3)C1)C2 [Compound I-2, 1,4-Dimethyl-6-(2-(1-(4-(methylsulfonyl)phenyl)azetidin-3-yl)acetyl)-1,5,6,7-tetrahydro-2H-pyrrolo[3,4-b]pyridin-2-one]	> 1000	50 to 200
Cc1c2c(n(C)c(=O)c1F)CN(C(=O)CC1CN(c3ccnc(C(F)(F)F)c3)C1)C2 [Compound I-84, 3-Fluoro-1,4-dimethyl-6-(2-(1-(2-(trifluoromethyl)pyridin-4-yl)azetidin-3-yl)acetyl)-1,5,6,7-tetrahydro-2H-pyrrolo[3,4-b]pyridin-2-one]	50 to 200	< 50
Cc1c2c(n(C)c(=O)c1C)CN(C(=O)CC1CN(c3ccc(C4CC4)c(F)c3)C1C)C2 (stereo not shown) [Compound I-60, 6-(2-(1-(4-Cyclopropyl-3-fluorophenyl)-2-methylazetidin-3-yl)acetyl)-1,3,4-trimethyl-1,5,6,7-tetrahydro-2H-pyrrolo[3,4-b]pyridin-2-one]	< 50	< 50
Cc1c2c(n(C)c(=O)c1Cl)CN(C(=O)CC1CN(c3cnccn3)C1)C2 [Compound I-72]	50 to 200	< 50
Cc1cc(=O)n(C)c2c1CN(C(=O)CC1CN(c3ccccn3)C1)C2 [Compound I-9]	200 to 1000	< 50
Cc1c2c(n(C)c(=O)c1C)CN(C(=O)CC1CN(c3ccc(C4CC4)c(F)c3)C1)C2 [Compound I-53]	50 to 200	< 50
COc1cc(N2CC(CC(=O)N3Cc4c(C)c(Cl)c(=O)n(C)c4C3)C2)ccn1 [Compound I-77]	200 to 1000	< 50
